According to the Kinase Knowledgebase extract (Sharma et al. 2016):
Where “and” joins values, the source holds several entries; their conditions need not be identical. Equal entries are not always repeated.

What was measured:
[1] = biological target: EGFR (UniProt P00533)
[2] = biological target: CDK2 (human) (UniProt P24941)
[3] = biological target: EGFR (mouse) (UniProt P00533); conditions: balb/mk cells
[4] = biological target: EGFR (human) (UniProt P00533)
[5] = biological target: EGFR (human) (UniProt P00533); conditions: a431
[6] = biological target: MAPK14 (human) (UniProt Q16539); test: Enzyme Assay
[7] = biological target: MAPK14 (human) (UniProt Q16539); test: Enzyme Assay; remark: listed apart in the source
[8] = biological target: EGFR (human) (UniProt P00533); remark: listed apart in the source
[9] = biological target: EGFR (human) (UniProt P00533); conditions: a431; remark: listed apart in the source
[10] = biological target: EGFR (human) (UniProt P00533); conditions: a431; remark: listed apart in the source
[11] = biological target: EGFR (human) (UniProt P00533); conditions: a549
[12] = biological target: EGFR (human) (UniProt P00533); remark: listed apart in the source
[13] = biological target: PIK3CA (UniProt P42336); test: PIK3CA Inhibition
[14] = biological target: MAPK14 (UniProt Q16539); test: p38 Binding Asssy
[15] = biological target: CDK2 (UniProt P24941); test: Enzyme Assay
[16] = biological target: CDK2 (UniProt P24941); test: Enzyme Assay; remark: listed apart in the source
[17] = biological target: EGFR (human) (UniProt P00533); remark: listed apart in the source
[18] = biological target: PIK3CG (human) (UniProt P48736); test: Inhibition of PIK3CG Kinase Activity
[19] = biological target: PIK3CA (human) (UniProt P42336); test: Inhibition of PIK3CA Kinase Activity (FP Assay)
[20] = biological target: EGFR (UniProt P00533); remark: listed apart in the source
[21] = biological target: PIK3CA (human) (UniProt P42336); test: Inhibition of PIK3CA Kinase Activity in HeLa Cells
[22] = biological target: EGFR (human) (UniProt P00533); conditions: A431
[23] = system: MAPK14 (sprague-dawley rat); test: p38-mediated TNF-alpha Inhibition (Sprauge-Dawley Rats); conditions: dose or concentration not given here
[24] = biological target: ROCK2 (human) (UniProt O75116)
[25] = biological target: EGFR (UniProt P00533); remark: listed apart in the source
[26] = biological target: ROCK2 (human) (UniProt O75116); test: Enzyme Assay
[27] = biological target: ROCK2 (human) (UniProt O75116); test: Enzyme Assay; remark: listed apart in the source
[28] = biological target: CDK2 (human) (UniProt P24941); test: Enzyme Assay
[29] = biological target: CDK2 (human) (UniProt P24941); test: Enzyme Assay; remark: listed apart in the source
[30] = biological target: MAPK14 (human) (UniProt Q16539); test: p38 --- IL-1 Inhibition (PBMC cells)
[31] = biological target: MAPK14 (human) (UniProt Q16539); test: p38 --- TNF Inhibition (PBMC cells)
[32] = biological target: EGFR (human) (UniProt P00533); remark: listed apart in the source

Sequence of ROCK2 (human) (O75116 whole entry, looked up): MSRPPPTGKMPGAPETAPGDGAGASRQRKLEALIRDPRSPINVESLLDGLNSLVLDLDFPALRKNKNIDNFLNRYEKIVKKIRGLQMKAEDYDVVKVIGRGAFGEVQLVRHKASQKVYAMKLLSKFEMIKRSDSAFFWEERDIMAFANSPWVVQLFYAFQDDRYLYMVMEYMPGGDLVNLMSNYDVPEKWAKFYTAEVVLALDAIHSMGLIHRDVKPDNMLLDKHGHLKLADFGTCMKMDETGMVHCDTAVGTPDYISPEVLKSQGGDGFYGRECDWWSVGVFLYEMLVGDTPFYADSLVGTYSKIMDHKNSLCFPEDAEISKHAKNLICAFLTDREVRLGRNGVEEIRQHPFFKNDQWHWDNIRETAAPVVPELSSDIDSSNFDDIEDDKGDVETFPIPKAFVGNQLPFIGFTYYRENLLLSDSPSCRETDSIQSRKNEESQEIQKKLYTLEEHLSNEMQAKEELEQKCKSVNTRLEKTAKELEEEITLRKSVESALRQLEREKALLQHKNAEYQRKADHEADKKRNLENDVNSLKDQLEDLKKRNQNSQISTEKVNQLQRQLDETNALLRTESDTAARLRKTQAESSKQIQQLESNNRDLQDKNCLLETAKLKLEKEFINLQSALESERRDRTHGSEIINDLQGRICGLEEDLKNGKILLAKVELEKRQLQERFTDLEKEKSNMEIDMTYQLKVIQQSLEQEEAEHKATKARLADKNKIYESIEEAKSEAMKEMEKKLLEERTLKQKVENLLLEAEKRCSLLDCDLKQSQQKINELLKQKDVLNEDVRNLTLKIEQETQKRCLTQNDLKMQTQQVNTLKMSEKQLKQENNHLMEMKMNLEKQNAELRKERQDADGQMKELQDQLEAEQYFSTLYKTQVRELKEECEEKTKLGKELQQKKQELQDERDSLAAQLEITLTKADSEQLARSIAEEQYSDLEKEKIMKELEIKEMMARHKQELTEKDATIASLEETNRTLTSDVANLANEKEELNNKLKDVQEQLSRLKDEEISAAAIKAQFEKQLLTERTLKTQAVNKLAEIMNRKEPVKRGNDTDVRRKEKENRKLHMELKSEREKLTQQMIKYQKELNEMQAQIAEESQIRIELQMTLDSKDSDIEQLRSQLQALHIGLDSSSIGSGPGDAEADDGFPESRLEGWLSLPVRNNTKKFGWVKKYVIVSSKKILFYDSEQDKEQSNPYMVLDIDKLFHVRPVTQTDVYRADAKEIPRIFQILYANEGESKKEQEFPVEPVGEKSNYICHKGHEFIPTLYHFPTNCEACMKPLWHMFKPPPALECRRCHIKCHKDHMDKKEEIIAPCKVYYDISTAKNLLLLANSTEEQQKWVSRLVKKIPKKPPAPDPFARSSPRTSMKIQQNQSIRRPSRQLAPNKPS
Sequence of PIK3CA (human) (P42336 whole entry, looked up): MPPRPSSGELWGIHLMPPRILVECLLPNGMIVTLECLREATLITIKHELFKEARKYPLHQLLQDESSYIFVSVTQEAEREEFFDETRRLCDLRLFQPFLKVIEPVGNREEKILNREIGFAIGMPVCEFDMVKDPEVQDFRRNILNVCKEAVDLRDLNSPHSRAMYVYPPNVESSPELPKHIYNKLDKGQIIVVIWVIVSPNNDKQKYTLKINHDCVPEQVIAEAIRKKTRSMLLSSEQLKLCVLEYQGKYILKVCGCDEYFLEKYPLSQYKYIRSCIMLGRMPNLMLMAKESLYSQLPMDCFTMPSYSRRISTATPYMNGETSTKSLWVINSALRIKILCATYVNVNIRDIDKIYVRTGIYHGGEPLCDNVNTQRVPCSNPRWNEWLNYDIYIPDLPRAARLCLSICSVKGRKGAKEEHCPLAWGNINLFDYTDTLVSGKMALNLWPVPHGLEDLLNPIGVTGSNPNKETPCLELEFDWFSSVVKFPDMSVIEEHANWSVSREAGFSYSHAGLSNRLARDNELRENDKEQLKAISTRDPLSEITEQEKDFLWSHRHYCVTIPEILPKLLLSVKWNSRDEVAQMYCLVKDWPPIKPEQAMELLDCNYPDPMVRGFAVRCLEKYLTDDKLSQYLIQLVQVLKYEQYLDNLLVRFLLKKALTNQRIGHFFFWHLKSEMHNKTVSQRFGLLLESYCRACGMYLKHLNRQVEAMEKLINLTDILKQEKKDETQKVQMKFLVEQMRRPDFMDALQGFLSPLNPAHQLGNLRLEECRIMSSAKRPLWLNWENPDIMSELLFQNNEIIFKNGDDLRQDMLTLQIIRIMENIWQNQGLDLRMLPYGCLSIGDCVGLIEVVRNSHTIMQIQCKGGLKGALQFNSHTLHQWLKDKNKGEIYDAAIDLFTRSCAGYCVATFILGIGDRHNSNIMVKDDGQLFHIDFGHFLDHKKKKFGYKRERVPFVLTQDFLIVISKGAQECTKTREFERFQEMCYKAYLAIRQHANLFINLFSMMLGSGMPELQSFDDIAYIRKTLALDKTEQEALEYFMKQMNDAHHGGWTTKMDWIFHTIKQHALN
Sequence of MAPK14 (human) (Q16539 whole entry, looked up): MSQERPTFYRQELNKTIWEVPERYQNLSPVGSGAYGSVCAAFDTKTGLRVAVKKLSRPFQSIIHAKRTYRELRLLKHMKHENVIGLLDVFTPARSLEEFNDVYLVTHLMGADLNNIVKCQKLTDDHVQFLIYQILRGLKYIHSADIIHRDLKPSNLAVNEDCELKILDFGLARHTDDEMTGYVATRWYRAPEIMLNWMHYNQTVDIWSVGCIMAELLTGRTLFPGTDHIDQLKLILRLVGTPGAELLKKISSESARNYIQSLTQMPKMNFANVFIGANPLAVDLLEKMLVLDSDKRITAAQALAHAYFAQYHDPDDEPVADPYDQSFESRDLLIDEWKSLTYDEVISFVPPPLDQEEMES
Sequence of EGFR (P00533 whole entry, looked up): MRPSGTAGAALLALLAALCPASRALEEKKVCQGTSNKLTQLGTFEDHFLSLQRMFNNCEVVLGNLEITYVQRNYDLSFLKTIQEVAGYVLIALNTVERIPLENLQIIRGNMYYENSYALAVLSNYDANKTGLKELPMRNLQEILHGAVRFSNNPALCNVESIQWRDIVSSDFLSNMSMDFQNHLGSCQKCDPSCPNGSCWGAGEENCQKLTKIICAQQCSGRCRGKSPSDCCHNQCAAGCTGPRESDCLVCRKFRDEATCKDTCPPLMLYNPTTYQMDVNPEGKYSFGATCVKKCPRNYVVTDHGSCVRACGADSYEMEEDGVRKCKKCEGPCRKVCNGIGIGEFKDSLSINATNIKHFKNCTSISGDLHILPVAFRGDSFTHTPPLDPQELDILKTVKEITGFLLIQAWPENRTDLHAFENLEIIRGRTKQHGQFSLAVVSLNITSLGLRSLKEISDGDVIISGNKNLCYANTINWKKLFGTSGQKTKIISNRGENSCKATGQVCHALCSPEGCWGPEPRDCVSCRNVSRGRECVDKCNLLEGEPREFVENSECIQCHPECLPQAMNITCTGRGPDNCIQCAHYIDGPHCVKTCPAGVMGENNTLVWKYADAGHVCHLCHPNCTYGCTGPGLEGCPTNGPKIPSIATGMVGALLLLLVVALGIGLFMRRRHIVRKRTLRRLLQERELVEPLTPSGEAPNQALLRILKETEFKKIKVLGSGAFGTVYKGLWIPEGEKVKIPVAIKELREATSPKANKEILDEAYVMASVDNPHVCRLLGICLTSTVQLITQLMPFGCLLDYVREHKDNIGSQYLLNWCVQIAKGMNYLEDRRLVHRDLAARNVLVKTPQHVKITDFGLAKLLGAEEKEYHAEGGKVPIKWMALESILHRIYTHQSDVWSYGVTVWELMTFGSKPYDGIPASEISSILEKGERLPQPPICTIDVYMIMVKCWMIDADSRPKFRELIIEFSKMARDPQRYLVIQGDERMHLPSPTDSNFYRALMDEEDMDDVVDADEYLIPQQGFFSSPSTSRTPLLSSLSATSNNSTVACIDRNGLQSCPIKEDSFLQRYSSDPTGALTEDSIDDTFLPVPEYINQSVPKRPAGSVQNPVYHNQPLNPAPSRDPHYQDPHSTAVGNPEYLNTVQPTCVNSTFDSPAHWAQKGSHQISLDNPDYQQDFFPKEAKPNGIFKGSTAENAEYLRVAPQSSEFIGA
Sequence of PIK3CA (P42336 whole entry, looked up): as the sequence (P42336 whole entry, looked up) above
Sequence of MAPK14 (Q16539 whole entry, looked up): as the sequence (Q16539 whole entry, looked up) above

For `COc1ccc(OC)c(COc2ccc(O)c(C(=O)O)c2)c1`, which IC50 [1] is on record?
The IC50 was greater than 100000 nM.

With `O=C1Nc2ccc3ncsc3c2C1=NNc1ccc(S(=O)(=O)O)cc1` as the compound, how does the IC50 [2] read?
Its IC50 is 540 nM.

How did the IC50 [3] turn out when `C[C@H](NC(=O)[C@H](C)NC(=O)c1ccc(S(=O)(=O)Oc2ccc(/C=C/[N+](=O)[O-])cc2)cc1)C(=O)O` was run?
Its IC50 is greater than 50000 nM.

`COCC=CC(=O)Nc1ccc2ncnc(Nc3cccc(Br)c3)c2c1` was tested. Which IC50 [4] did it give?
Its IC50 is 1130 nM.

And the IC50 [5]?
The IC50 was 8500 nM.

`Cc1cccc(COc2nc(C)n(-c3cc(-c4ccnc(C(C)(C)O)n4)ccc3C)c(=O)c2Cl)n1` was tested. Which IC50 [6] did it give?
Its IC50 is 184 nM.

And the IC50 [7]?
The IC50 was > 30000 nM and 3300 nM.

`COC(=O)Nc1ccc(Nc2ncnc3cc(OC)c(OC)cc23)cc1` was tested. Which IC50 [8] did it give?
The IC50 was 6900 nM.

`COC(=O)c1cc(OCc2cc(OC)ccc2OC)ccc1O` was tested. Which IC50 [1] did it give?
The IC50 was greater than 100000 nM.

For `Oc1ccc2ncnc(Nc3cccc(Br)c3)c2c1`, which Ki [9] is on record?
The Ki was 0.025 nM.

With `COc1cc(O)c2c(=O)n(-c3cccc(C(=O)NC4CCCC4)c3)ccc2c1` as the compound, how does the IC50 [10] read?
Its IC50 is 2250 nM.

What about the IC50 [11] of the same compound?
Its IC50 is 14200 nM.

What about the IC50 [12] of the same compound?
The IC50 was 1380 nM.

With `CCCCCCCCCCCCCCCCCCOC[C@H](COP(=O)(O)O[C@H]1[C@H](O)[C@@H](O)CC[C@H]1O)OC` as the compound, how does the IC50 [13] read?
The IC50 was 800 nM.

Which Ki [9] does the source give for `Oc1ccc2c(Nc3cccc(Br)c3)ncnc2c1` here?
The Ki was 0.168 nM.

`[N-]=[N+]=Nc1cccc(-c2ncn(CCCNC(=O)c3ccc(I)cc3)c2-c2ccncc2)c1` was tested. Which IC50 [14] did it give?
The IC50 was 46 nM.

With `COc1ccc2cnc(Nc3ccc(N4CCCCC4)cc3)nc2c1C(C)C` as the compound, how does the IC50 [15] read?
The IC50 was 264 nM.

What about the IC50 [16] of the same compound?
The IC50 was 4100 nM.

For `CN(C/C=C/C(=O)Nc1cccc(-n2nc(-c3ccc(Cl)cc3)c3c(N)ncnc32)c1)C1CC1`, which IC50 [17] is on record?
Its IC50 is 100 to 1000 nM.

Which IC50 [18] does the source give for `COC[C@H]1OC(=O)/C(=C/N(C)CCCN(C)C)C2=C(O)C(=O)C3=C([C@H](OC(C)=O)C[C@@]4(C)C3CC[C@@H]4O)[C@]21C` (some centres not stated) here?
Its IC50 is 8 nM.

What about the IC50 [19] of the same compound?
The IC50 was 6.4 nM.

Which IC50 [3] does the source give for `C[C@H](NC(=O)c1ccc(S(=O)(=O)Oc2ccc(/C=C/[N+](=O)[O-])cc2)cc1)C(=O)N[C@@H](C)C(=O)NCCN` here?
Its IC50 is greater than 50000 nM.

`CC(C)N(CCC(=O)c1ccc2ccccc2c1)Cc1ccccc1` was tested. Which IC50 [20] did it give?
The IC50 was 3130 nM.

How did the EC50 [21] turn out when `Cc1ccc(Sc2cccc3[nH]c4nc(N)nc(N)c4c23)cc1` was run?
Its EC50 is 12200 nM.

What about the IC50 [22] of the same compound?
Its IC50 is 14100 nM.

How did the inhibition [23] turn out when `CNCC#Cc1cccc(C(=O)c2cnn(-c3ccc(F)cc3)c2N)c1` was run?
The inhibition was 86%.

With `O=C(O)C[C@@H](NC(=O)c1ccc2c(c1)OCc1cnccc1-2)c1ccccc1` as the compound, how does the IC50 [24] read?
Its IC50 is 516 nM.

For `COc1cc2ncnc(Nc3ccc(F)c(Cl)c3)c2cc1OCCN1CCN(C)CC1`, which IC50 [25] is on record?
The IC50 was 10 nM.

What does the source list for `CC(C)OC(=O)Cc1cccc(NC(=O)c2cccc(-c3cc(C(=O)Nc4ccncc4F)ccc3CN)c2)c1`?
IC50 [26]: < 1 nM; IC50 [27]: < 1 nM

Which activity ([28]; 1.0 µM) does the source give for `CO[C@H]1[C@@H](OC)C[C@H](C)[C@@H](OC)C2=CC(=O)C=C(NC(=O)/C(C)=C/C=C/[C@H](OC)[C@H](OC(N)=O)/C(C)=C/[C@@H]1C)C2=O` here?
Its activity is 104%.

What about the activity ([28]; 10.0 µM) of the same compound?
The activity was 91%.

And the activity ([29]; 1.0 µM)?
The activity was 138%.

What about the activity ([29]; 10.0 µM) of the same compound?
The activity was 83%.

Which IC50 [30] does the source give for `Cc1ccc(Sc2ccc3c(-c4c(Cl)cccc4Cl)c(=O)ncn3n2)cc1` here?
Its IC50 is 350 nM.

What about the IC50 [31] of the same compound?
Its IC50 is 870 nM.

What does the source list for `Oc1c(-c2ccc(F)cc2)c(-c2ccncc2)nn1-c1ccc(Cl)cc1`?
activity ([6]; 1.0 µM): 3%; activity ([6]; 10.0 µM): 0%; activity ([32]; 1.0 µM): 54%; activity ([32]; 10.0 µM): 6%

How did the EC50 [21] turn out when `Nc1nc(N)c2c(n1)[nH]c1cccc(Sc3ccccc3)c12` was run?
The EC50 was 21600 nM.

What about the IC50 [22] of the same compound?
Its IC50 is 49200 nM.
